Experimental findings from US20260007636A1, “TREATING VASCULAR STENOSIS” (Mayo Foundation for Medical Education and Research, priority 2022, published 2026) are described below.

“Also recorded” adds a separate entry of the source.

One assay deals with Mcp-1. Briefly: Mcp-1 gene expression in PMA treated THP-1 cells (qRT-PCR). The assay is classed as cell-based, human. On the procedure: (§1) THP-1 (human leukemia monocyte cell line) cells were obtained from American Type Culture Collection (ATCC, Manassas, VA). THP-1 cells (200,000/well) were placed in six-well plates. After overnight incubation in serum free RPMI medium, cells were treated with 200 ng/ml of phorbol 12-myristate 13-acetate (PMA, Sigma-Aldrich, St. Louis, MO) to induce monocyte differentiation into macrophages. […] Cells were collected and RNA was isolated using miRNeasy kit (Qiagen).
(§2) PCR primers were purchased from Integrated DNA technologies (ITD, San Diego, USA). The miRNeasy Kit was used to isolate RNA (Qiagen, Germantown, MD, USA) according to the manufacturer's instructions. The iscript c-DNA synthesis kit (Bio-Rad, Hercules, CA, USA) was used to synthesize cDNA, and real-time qRT-PCR was done with the iTaq universal SYBR green super mix (Bio-Rad) using a C1000 thermal cycler with CFX96 real-time system (Bio-Rad). TBP-1 was used as a reference gene, and gene expression data was normalized to the respective control veins. The 2^−ΔΔct method was used to measure the fold change in gene expression.
(In qPCR the cycle at which signal appears reflects the starting amount.)

The subject of the next assay is THP-1 cells. Put plainly: CCR2, FABP4, IL8 and PPARγ gene expression in PMA treated THP-1 cells (qRT-PCR). To be noted: 200 ng/ml PMA, 300 μM BN or BN NP, 24 hours. The assay is classed as cell-based, human. On the procedure:
as §1, §2

In the case of `CCCCCCCCCCCCCC(=O)O[C@@H]1[C@@H](C)[C@@]2(O)[C@@H](C=C(CO)C[C@]3(O)C(=O)C(C)=C[C@@H]23)[C@@H]2C(C)(C)[C@]12OC(C)=O` [PMA, phorbol 12-myristate 13-acetate], the “average Mcp-1 gene expression” value in the assay with Mcp-1 (200 ng/ml PMA with or without 300 μM BN or BN NP, 24 hours, fold change) stood at 9.77±1.58. Also, the “average increase of Mcp-1 gene expression” value in the assay on Mcp-1 (PMA compared to NP C alone) was found to be 859.13%. In the assay on THP-1 cells, the CCR2 gene expression result is listed as “significantly increased; also recorded: induced”, the FABP4 gene expression entry is “significantly increased; also recorded: induced”, the IL8 gene expression result was “significantly increased; also recorded: induced” and the PPARγ gene expression result was “significantly increased; also recorded: induced”.
